Drawing on BindingDB's records for doi:10.1016/j.bmcl.2010.10.034 (Bristol-Myers Squibb Research and Development, 2010), this text covers IC50 for one molecule.

Where only a bound is given, the exact number is not on record here.

This assay concerns the target cAMP-dependent protein kinase catalytic subunit beta (Homo sapiens) (UniProt P22694). Briefly: Inhibition of PKAbeta.

Take `Cc1ccc(C(=O)Nc2ccon2)cc1NC(=O)c1cnn(-c2ccccc2F)c1N` [5-amino-1-(2-fluorophenyl)-N-(5-(isoxazol-3-ylcarbamoyl)-2-methylphenyl)-1H-pyrazole-4-carboxamide]: the IC50 was more than 40 µM.
